# Source: patent publication US8133847B2, “Pyrido[2,3-B]pyrazine derivatives useful as herbicidal compounds” (Syngenta Limited, priority 2006, dated 2012)
# Key:
# Assay in all cases: Example B1 herbicidal action, post-emergence, 96-cell seed trays, climatic chamber
# Type in all cases: in vivo
# [1] = system: Amaranthus retroflexus (AMARE); conditions: Application post-emergence, 1000 mg/l spray equivalent to 1000 g/ha, evaluated after 9 days
# In short: (§1)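 Plants at 8–9 days post-sowing (23/17 °C, 13 h light, 50–60% humidity) sprayed post-emergence with 1000 mg/l active ingredient in 10% DMSO, equivalent to 1000 g/ha. Grown on at 24/19 °C, watered twice daily; damage scored after 9 days (0 = none, 100 = total).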
# Solanum nigrum (SOLNI) = conditions: Application post-emergence, 1000 mg/l spray equivalent to 1000 g/ha, evaluated after 9 days (100=total damage to plant, 0=no damage to plant)
# In short: as §1
# Stellaria media (STEME) = conditions: Application post-emergence, 1000 mg/l spray equivalent to 1000 g/ha, evaluated after 9 days (100=total damage to plant, 0=no damage to plant)
# In short: as §1
# [2] = system: Nasturtium officinale (NAAOF); parameters: scale not given here; conditions: Application post-emergence, 1000 mg/l spray equivalent to 1000 g/ha, evaluated after 9 days (100=total damage to plant, 0=no damage to plant)
# In short: as §1
Compound,"damage to plant, Amaranthus retroflexus (AMARE) [1]","damage to plant, Solanum nigrum (SOLNI) (Solanum nigrum (SOLNI))","damage to plant, Stellaria media (STEME) (Stellaria media (STEME))","damage to plant, Nasturtium officinale (NAAOF) [2]"
CC(C)C(=O)Oc1c(-c2ccc(Cl)cc2Cl)c(=O)n(C)c2nccnc12 [Compound C63],5,5,8,9
CCn1c(=O)c(-c2ccc(Cl)cc2Cl)c(OC(=O)C(C)C)c2nccnc21 [Compound C64],6,8,10,10
CCc1cc(C)cc(CC)c1-c1c(OC(=O)C(C)C)c2nccnc2n(C)c1=O [Compound C65],4,3,6,7
CCn1c(=O)c(-c2cccc(Cl)c2)c(OC(C)=O)c2nccnc21 [Compound C66],0,0,7,7
CCn1c(=O)c(-c2ccc(Cl)cc2)c(OC(C)=O)c2nccnc21 [Compound C67],4,0,6,8
CC(C)C(=O)Oc1c(-c2cc(Cl)cc(Cl)c2Cl)c(=O)n(C)c2nccnc12 [Compound C68],0,0,5,5
COc1ccccc1-c1c(OC(=O)C(C)C)c2nccnc2n(C)c1=O [Compound C69],0,0,6,5
CCn1c(=O)c(-c2ccccc2OC)c(OC(=O)C(C)C)c2nccnc21 [Compound C70],0,0,3,4
"CC(C)C(=O)Oc1c(-c2c(F)ccc(F)c2Cl)c(=O)n(C)c2ncc[n+]([O-])c12 [Compound C71, isobutyric acid 7-(2-chloro-3,6-difluorophenyl)-5-methyl-6-oxo-1-oxy-5,6-dihydropyrido[2,3-]pyrazin-8-yl ester]",0,2,8,7
CCn1c(=O)c(-c2ccc(Cl)c(Cl)c2)c(OC(C)=O)c2nccnc21 [Compound C72],0,0,2,8
CC#CCOC(=O)Oc1c(-c2c(F)ccc(F)c2Cl)c(=O)n(C)c2nccnc12 [Compound C73],4,0,4,6
Cc1cc(C)c(-c2c(OC(=O)C(C)C)c3nccnc3n(C)c2=O)c(C)c1 [Compound C75],3,7,7,6
CC(C)C(=O)Oc1c(-c2c(Cl)cccc2C(F)(F)F)c(=O)n(C)c2nccnc12 [Compound C76],7,4,6,6
CCn1c(=O)c(-c2cccc(C(F)(F)F)c2Cl)c(OC(=O)C(C)C)c2nccnc21 [Compound C78],6,4,6,8
CC(C)C(=O)Oc1c(-c2c(Cl)ccc(Cl)c2Cl)c(=O)n(C)c2nccnc12 [Compound C79],6,6,7,5
CCn1c(=O)c(-c2c(Cl)cccc2C(F)(F)F)c(OC(=O)C(C)C)c2nccnc21 [Compound C80],7,2,8,6
CCn1c(=O)c(-c2c(C)cc(C)cc2C)c(OC(C)=O)c2nccnc21 [Compound C81],5,4,8,8
CC(C)C(=O)Oc1c(-c2c(F)ccc(F)c2Cl)c(=O)n(C)c2nc(Cl)cnc12 [Compound C82],4,0,0,0
CC(C)C(=O)Oc1c(-c2c(F)ccc(F)c2Cl)c(=O)n(C)c2ncc(Cl)nc12 [Compound C83],0,1,0,0
Cn1c(=O)c(-c2c(F)ccc(F)c2Cl)c(OC(=O)c2ccccc2)c2nccnc21 [Compound C84],6,8,7,5
COc1cccc(C(=O)Oc2c(-c3c(F)ccc(F)c3Cl)c(=O)n(C)c3nccnc23)c1 [Compound C85],5,4,4,3
Cn1c(=O)c(-c2c(F)ccc(F)c2Cl)c(OC(=O)c2ccco2)c2nccnc21 [Compound C86],7,7,6,6
CCC(C)C(=O)Oc1c(-c2c(F)ccc(F)c2Cl)c(=O)n(C)c2nccnc12 (centres unmarked) [Compound C87],6,6,2,4
CCC(CC)C(=O)Oc1c(-c2c(F)ccc(F)c2Cl)c(=O)n(C)c2nccnc12 [Compound C89],5,4,5,5
CC(C)=CC(=O)Oc1c(-c2c(F)ccc(F)c2Cl)c(=O)n(C)c2nccnc12 [Compound C90],3,8,7,6
Cn1c(=O)c(-c2c(F)ccc(F)c2Cl)c(OC(=O)c2cccs2)c2nccnc21 [Compound C91],7,8,8,4
CCCCC(CC)C(=O)Oc1c(-c2c(F)ccc(F)c2Cl)c(=O)n(C)c2nccnc12 (centres unmarked) [Compound C92],5,7,6,2
CCC(C(=O)Oc1c(-c2c(F)ccc(F)c2Cl)c(=O)n(C)c2nccnc12)c1ccccc1 (centres unmarked) [Compound C94],5,4,6,7
CCCC(C)C(=O)Oc1c(-c2c(F)ccc(F)c2Cl)c(=O)n(C)c2nccnc12 (centres unmarked) [Compound C95],6,5,7,7
